Here are results for four compounds from ChEMBL document CHEMBL1136327, “Synthesis of a highly active new anti-HIV agent 2',3'-didehydro-3'-deoxy-4'-ethynylthymidine” (Bioorg Med Chem Lett, 2003).

Test [1] relates to Human immunodeficiency virus 1. Kind of test: Inhibitory activity against HIV-1 IIIB to achieve 50% protection of MT-2 cells. The test is classed as functional, organism-based. The conditions noted are these: Human immunodeficiency virus 1, MT2.
Test [2] relates to MT2. Kind of test: Cytotoxic concentration required to reduce the viability of mock-infected MT-2 cells by 50%. The test is classed as functional. Conditions: Homo sapiens.

For the compound `C=C[C@@]1(CO)C=C[C@H](n2cc(C)c(=O)[nH]c2=O)O1`, the IC50 in test [1] is over 100 µM. This compound also returned a CC50 in test [2] of over 100 µM.

Compound `Cc1cn([C@H]2C=C[C@@](C)(CO)O2)c(=O)[nH]c1=O` displayed an IC50 in test [1] of over 100 µM. This compound also displayed a CC50 in test [2] of over 100 µM.

The compound `C#C[C@@]1(CO)C=C[C@H](n2cc(C)c(=O)[nH]c2=O)O1` [CENSAVUDINE] yielded an IC50 in test [1] of 0.2 µM. Also, the CC50 in test [2] is over 100 µM.

In test [1], `Cc1cn([C@H]2C=C[C@@H](CO)O2)c(=O)[nH]c1=O` [STAVUDINE] displayed an IC50 of 2.8 µM. The midpoint of cytotoxicity in test [2], the CC50, lay at 100 µM.
